{"source": "patent US20080108669A1", "about": "“Use 541” (AstraZeneca AB, priority 2006, published 2008)", "key": {"human Trk A kinase": {"biological_target": "T1, human Trk A kinase (Homo sapiens, UniProt P04629)", "T1 construct": "HIS; made in house; host or cells: SF9 insect cells", "T1 sequence (P04629 442-796)": "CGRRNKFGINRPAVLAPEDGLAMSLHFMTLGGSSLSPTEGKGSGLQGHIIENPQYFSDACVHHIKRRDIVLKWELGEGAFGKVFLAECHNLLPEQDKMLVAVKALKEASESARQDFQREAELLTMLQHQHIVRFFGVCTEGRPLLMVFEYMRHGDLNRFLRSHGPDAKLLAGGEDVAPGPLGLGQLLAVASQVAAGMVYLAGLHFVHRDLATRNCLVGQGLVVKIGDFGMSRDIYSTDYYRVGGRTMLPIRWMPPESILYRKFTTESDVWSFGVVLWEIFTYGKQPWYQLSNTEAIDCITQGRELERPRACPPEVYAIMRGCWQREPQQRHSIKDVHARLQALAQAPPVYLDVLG", "test": "Trk A kinase assay (Alphascreen)", "assay_type": "biochemical", "conditions": "human Trk A intracellular domain, 70 μM ATP, 20 minutes, room temperature; read-out: IC50 (Trk inhibitory activity)", "protocol": "Trk A kinase activity was measured for its ability to phosphorylate synthetic tyrosine residues within a generic polypeptide substrate using an Amplified Luminescent Proximity Assay (Alphascreen) technology (PerkinElmer, 549 Albany Street, Boston, Mass.).\nTo measure Trk A kinase activity, the intracellular domain of a HIS-tagged human Trk A kinase (amino acids 442-796 of Trk A, Swiss-Prot Primary Accession Number P04629) was expressed in SF9 cells and purified using standard nickel column chromatography. After incubation of the kinase with a biotinylated substrate and adenosine triphosphate (ATP) for 20 minutes at room temperature, the kinase reaction was stopped by the addition of 30 mM ethylenediaminetetraacetic acid (EDTA). The reaction was performed in 384 well microtitre plates and the reaction products were detected with the addition of strepavidin coated Donor Beads and phosphotyrosine-specific antibodies coated Acceptor Beads using the EnVision Multilabel Plate Reader after an overnight incubation at room temperature."}, "[1]": {"test_system": "carrageenan-induced monoarthritis in rat", "test": "Monoarthritis induced by carrageenan, Paw Print setup (hindpaw weight distribution, \"Walking pain\")", "assay_type": "in vivo", "conditions": "for hindpaw weight distribution (difference in percent weight-bearing between the two hind paws), mean ±SEM: four hours after administration (five hours after carrageenan), vehicle group 39.0±2.1%, n=8", "protocol": "One single injection of carrageenan directly into the rat knee joint produces symptoms peaking at 3 to 4 hours and lasting for one to two days, and which are sensitive to treatment by most anti-nociceptive drugs (Tonussi and Ferreira, Pain 1992, 48, 421-427).\nUnder isoflurane anesthesia, 50 μL of carrageenan (7.5 mg/mL) was injected into the left tibio-tarsal (ankle) joint from the dorsal side. This injection causes a localized inflammation increasing to a maximum between 4 h to 8 h after induction, after which it gradually decreases, and the animals display decreased weight bearing on and guarding of the limb.\nThe Paw Print walkway consists of a 100×10 cm path with an access point at one short end and an exit at the other, and the rats are trained to make a swift, continuous passage. The walkway has a glass floor where light is projected into one long edge via fiber optics. Projecting the light in this fashion allows for virtually complete internal reflection within the glass floor. Only where an object touches the glass, such as the placement of a rat paw, light is scattered at the point of contact and produces an illuminated print (Betts, Duckworth, Eng. Med. 1978, 7, 223-228) that is recorded by a wide-angle camera placed under the walkway. The light intensity (range 0-255) of the illumination depends on the degree of contact against the floor and increases with the applied pressure (Clarke, Physiology & Behavior 1995, 58, 415-419). The Paw Print setup is a modified version of the CatWalk introduced by Hamers, Lankhorst, van Laar, Veldhuis, Gispen (J. Neurotrauma 2001, 18, 187-201), and has a computerized gait detection algorithm extracting several parameters pertaining to the rat's gait pattern and weight-bearing.\nThe animals were trained to cross the walkway twice, one and two days before induction of monoarthritis. Recordings were subsequently made on the day of testing, immediately before, and three and five hours after carrageenan injection, corresponding to two and four hours after per oral administration of test compound. The following parameters were used for analysis:\nWeight-bearing per paw=The total sum of maximum light intensities for all pixels in the print of one paw is multiplied by the number of pixels of the print area. A paw placement consists of a number of pixels with light intensity above a certain threshold value (80 in this study). During the time course of one paw placement, a maximum value of light intensity is recorded for each pixel.\nBased on the weight-bearing results, the Paw Print algorithm chooses the median print per paw in one walkway crossing. The median weight-bearing of each paw constitutes a percentage of the sum of all four paws' median weight-bearing results. The difference in percent weight-bearing between the two hind paws is shown (“Walking pain”).\nThe test compounds were administered 60 min after induction of monoarthritis.\nResults were analysed using 1-Way ANOVA followed by Newman-Keuls for comparison between treatment groups for data obtained at each time-point after administration. The level of significance was set at p<0.05 (SigmaStat® 2.03)."}}, "data": [{"smiles": "C[C@H](Nc1nc(Nc2cc(C3CC3)[nH]n2)c(F)cc1CNC(=O)C1CCC(=O)N1)c1ccc(F)cc1", "note": "(stereo partly drawn) [N-((6-(5-Cyclopropyl-1H-pyrazol-3-ylamino)-5-fluoro-2-((S)-1-(4-fluorophenyl)ethylamino)pyridin-3-yl)methyl)-5-oxopyrrolidine-2-carboxamide]", "values": [{"measurement": "IC50", "setting": "human Trk A kinase", "value": 109, "unit": "nM"}]}, {"smiles": "C[C@H](Nc1nc(Nc2cc(C3CC3)[nH]n2)c(Cl)cc1Cl)c1ccc(F)cc1", "note": "[(S)-3,5-Dichloro-N^2-(5-cyclopropyl-1H-pyrazol-3-yl)-N^6-(1-(4-fluoro-phenyl)ethyl)pyridine-2,6-diamine]", "values": [{"measurement": "IC50", "setting": "human Trk A kinase", "value": 611, "unit": "nM"}]}, {"smiles": "C[C@H](Nc1ccc([N+](=O)[O-])c(Nc2cc(C3CC3)[nH]n2)n1)c1ccc(F)cc1", "note": "[(S)-N^2-(5-Cyclopropyl-1H-pyrazol-3-yl)-N^6-(1-(4-fluorophenyl)ethyl)-3-nitropyridine-2,6-diamine]", "values": [{"measurement": "IC50", "setting": "human Trk A kinase", "value": 63, "unit": "nM"}]}, {"smiles": "CC(C)Oc1cc(Nc2nc(N[C@@H](C)c3ccc(F)cn3)c(C#N)cc2F)n[nH]1", "note": "[(S)-5-Fluoro-2-(1-(5-fluoropyridin-2-yl)ethylamino)-6-(5-isopropoxy-1H-pyrazol-3-ylamino)nicotinonitrile]", "values": [{"measurement": "hindpaw weight distribution (difference in percent weight-bearing between the two hind paws), mean ±SEM", "setting": "[1]; 50 μmol/kg per oral", "value": "24.6±4.3", "unit": "%"}, {"measurement": "hindpaw weight distribution (difference in percent weight-bearing between the two hind paws), mean ±SEM", "setting": "[1]; 100 μmol/kg per oral", "value": "27.6±3.3", "unit": "%"}, {"measurement": "hindpaw weight distribution (difference in percent weight-bearing between the two hind paws), mean ±SEM", "setting": "[1]; 200 μmol/kg per oral", "value": "18.4±3.2", "unit": "%"}, {"measurement": "effect on hindpaw weight distribution vs vehicle (p<0.05)", "setting": "[1]; four hours after per oral administration, all doses tested: 50, 100 and 200 μmol/kg", "value": "significantly reduced"}, {"measurement": "effect on hindpaw weight distribution vs vehicle (p<0.05)", "setting": "[1]; two hours after per oral administration, 50, 100 and 200 μmol/kg", "value": "not at two hours"}]}]}
